Here are results for 5 molecules from patent US20210221817A1, “NOVEL HETEROAROMATIC COMPOUNDS AS POTENT MODULATORS OF THE HIPPO-YAP SIGNALING PATHWAY LATS1/2 KINASES” (Nivien Therapeutics Compny, priority 2018, published 2021).

The term IC50 denotes the concentration at which inhibition is half-maximal. Low values mean inhibition by little substance, high ones a need for much substance.

The target in test [1] is T1, LATS1/2.
T1 construct: LATS1 (amino acids 589-1130; ThermoFisher, PV6363), LATS2 (amino acids 488-1080; fused on or other part: GST tag, inferred from the LanthaScreen Eu-anti-GST antibody and the ThermoFisher products
As to the kind of experiment: TR-FRET LanthaScreen binding assay. Conditions: LATS1 (aa 589-1130), LATS2 (aa 488-1080), kinase tracer 236. The protocol: IC50 scores were determined using a TR-FRET LanthaScreen binding assay using LATS1 (amino acids 589-1130; ThermoFisher, PV6363), LATS2 (amino acids 488-1080; ThermoFisher, PV6366); kinase tracer 236 (ThermoFisher, PV5592); LanthaScreen Eu-anti-GST (ThermoFisher, PV3189); 5× kinase buffer A (ThermoFisher, PV6135); low-volume 384-well plate format.

In test [2] the test system is YAP phosphorylation in PANC1 cells. As to the kind of experiment: YAP phosphorylation in PDAC PANC1 cells (FIG. 1). Format: cell-based. To be noted: 48 h; for overall YAP levels / p-YAP levels (YAP phosphorylation): 5 μM and 25 μM. The protocol:
FIG. 1 is an image showing that the LATS1/2 inhibitors of the invention reduce YAP phosphorylation in PDAC PANC1 cells in a dose-dependent manner. FIG. 1 consists of two columns. On the left: the cells were treated with control and 5 μM of each of the compounds of the invention. Control in lane “C.” In lane “1” is 4-(6-(4-(2-morpholinoethoxy)phenyl)imidazo[1,2-b]pyridazin-3-yl)benzamide (compound 1). In lane “2” is 4-(6-(3-aminopiperidin-1-yl)imidazo[1,2-b]pyridazin-3-yl)benzamide (compound 3). In lane “4” is 4-(6-(4-aminopiperidin-1-yl)imidazo[1,2-b]pyridazin-3-yl)benzamide (compound 4). In lane “6” is 4-(6-(piperazin-1-yl)imidazo[1,2-b]pyridazin-3-yl)benzamide (compound 2). In lane “7” is 4-(4-(4-(4-chlorophenyl)piperidin-4-yl)phenyl)-3-methyl-1H-pyrazolo[4,3-c]pyridine (compound 5).
(§1) On the left: the cells were treated with control and 25 μM of each of the compounds of the invention. Control in lane “C.” In lane “1” is 4-(6-(4-(2-morpholinoethoxy)phenyl)imidazo[1,2-b]pyridazin-3-yl)benzamide (compound 1). In lane “2” is 4-(6-(3-aminopiperidin-1-yl)imidazo[1,2-b]pyridazin-3-yl)benzamide (compound 3). In lane “4” is 4-(6-(4-aminopiperidin-1-yl)imidazo[1,2-b]pyridazin-3-yl)benzamide (compound 4). In lane “6” is 4-(6-(piperazin-1-yl)imidazo[1,2-b]pyridazin-3-yl)benzamide (compound 2). In lane “7” is 4-(4-(4-(4-chlorophenyl)piperidin-4-yl)phenyl)-3-methyl-1H-pyrazolo[4,3-c]pyridine (Compound 5).
(§2) YAP is stained for Yes-associated protein; p-YAP is stained for phosphorylated Yes-associated protein; GAPDH is a standard protein loading control.

For test [3], the system named is PANC1 cells. As to the kind of experiment: Killing of PANC1 cells observed in the FIG. 1 experiment. In kind it is cell-based. To be noted: higher dose (25 μM). As to the method: as §1, §2
Test [4] relates to ABCG2 transcription in PANC1 cells. The test can be described thus: ABCG2 transcription in PDAC PANC1 cells (FIG. 2). In kind it is cell-based. To be noted: 25 μM, 48-hour treatment. As to the method:
FIG. 2 is an image showing that the LATS1/2 inhibitors of the invention reduce transcription of ABCG2, a critical multidrug efflux transporter, in PDAC PANC1 cells. The y-axis is the normalized transcription level of ABCG2. The bar labeled ABCG2_control represents PANC1 cells that received no treatment. The bar labeled ABCG2_201 represents PANC1 cells treated with 4-(6-(4-(2-morpholinoethoxy)phenyl)imidazo[1,2-b]pyridazin-3-yl)benzamide (compound 1) at 25 μM. The bar labeled ABCG2_206 represents cells treated with 4-(6-(piperazin-1-yl)imidazo[1,2-b]pyridazin-3-yl)benzamide (compound 2) 25 μM.

Take `Cc1n[nH]c2ccnc(-c3ccc(C4(c5ccc(Cl)cc5)CCNCC4)cc3)c12` [Compound 5, 4-(4-(4-(4-chlorophenyl)piperidin-4-yl)phenyl)-3-methyl-1H-pyrazolo[4,3-c]pyridine]: in test [1], the IC50 is 0.1 to 50 nM. Moreover, the “p-YAP levels at the lower dose” value in test [2] (lower dose (5 μM)) is reported as “reduced p-YAP levels”. Also, the “killing of PANC1 cells at the higher dose” value in test [3] is given as “killed all PANC1 cells”.

For the molecule `NC(=O)c1ccc(-c2cnc3ccc(N4CCC(N)CC4)nn23)cc1` [Compound 4, 4-(6-(4-Aminopiperidin-1-yl)imidazo[1,2-b]pyridazin-3-yl)benzamide], in test [1], the IC50 was 0.1 to 50 nM.

The molecule `NC(=O)c1ccc(-c2cnc3ccc(-c4ccc(OCCN5CCOCC5)cc4)nn23)cc1` [Compound 1, 4-(6-(4-(2-Morpholinoethoxy)phenyl)imidazo[1,2-b]pyridazin-3-yl)benzamide] gave an IC50 in test [1] of 10 to 1000 nM. Also, in test [2], the “overall YAP levels” value is “without impacting overall YAP levels” and the “p-YAP levels (YAP phosphorylation)” value is listed as “reduce p-YAP levels”. Besides, the ABCG2 transcription levels entry in test [4] is reported as “reduce ABCG2 transcription levels”.

On to `NC(=O)c1ccc(-c2cnc3ccc(N4CCNCC4)nn23)cc1` [Compound 2, 4-(6-(piperazin-1-yl)imidazo[1,2-b]pyridazin-3-yl)benzamide], for which the IC50 in test [1] lay within 0.1 to 50 nM. Further, in test [2], the “overall YAP levels” value is “without impacting overall YAP levels” and the “p-YAP levels (YAP phosphorylation)” value is “reduce p-YAP levels”. Also, the ABCG2 transcription levels entry in test [4] is listed as “reduce ABCG2 transcription levels”.

Regarding `NC(=O)c1ccc(-c2cnc3ccc(N4CCCC(N)C4)nn23)cc1` (stereo not shown) [Compound 3, 4-(6-(3-Aminopiperidin-1-yl)imidazo[1,2-b]pyridazin-3-yl)benzamide], in test [1], the IC50 was in the range of 0.1 to 50 nM.
